Here are results for four substances from US20160030318A1, “HIGHLY BIOAVAILABLE Na-ACYL ACIDIC AMINO ACID ESTER SALT COMPOSITONS WITH ZWITTERIONIC SURFACTANTS” (JOHNSON & JOHNSON CONSUMER INC., priority 2014, published 2016).

A short description of data set [1]: Disc Retention Assay (DRA) for LAE bioavailability. In kind it is in vitro ADME. The text has this:
Procedure for Determining Bioavailability
Lanzalaco. Availability Testing of Cetylpyridinium Chloride Mouthrinses. […] Mar. 19-23, 1997.
Cellulose Filter disks (Schleicher and Schuell #740-E)
24-well culture plate (Corning 3526)
Vacuum pulled filtration system
0.1% Acid Fuschin dye solution (w/v)
20% p-toluenesulfonic acid solution (w/v)
Spectrophotometer (Molecular Devices—SpectraMAX 190)
10. […] Vortexed solution.
12. Read absorbance spectrophotometrically at 545 nm.

In data set [2] the test system is Escherichia, Pseudomonas aeruginosa, Proteus vulgarus, Staphylococcus aureus, Bacillus substilis, Candida albicans and Aspergillus niger. Conditions: disclosed in GB 1352420; cited from earlier work.
The conditions of data set [3]: described in JP 57-165305; cited from earlier work.

Consider Cocamidopropyl Betaine, for which, in data set [1], the “BA ± SE with LAE” value came out at 86.1 ± 2.8%, the “BA ± SE without LAE” value stood at 27.6 ± 15.0% and the “Impact of surfactant on LAE bioavailability” value is on record as “did not negatively impact bioavailability”. Turning to “N^α-cocoyl-L-arginine ethyl ester pyrrolidone carboxylate”, the bactericidal activity entry in data set [2] is given as “bactericidal activity”. Moreover, in data set [3], the bacteriocidal activity entry was “weak bacteriocidal activity”. With “N^α-cocoyl-L-arginine methyl ester pyrrolidone carboxylate”, the bactericidal activity result in data set [2] is “bactericidal activity”. On to Poloxamer 407, for which, in data set [1], the “BA ± SE with LAE” value is listed as 35.9 ± 5.2%.
